The values that follow come from ChEMBL document CHEMBL6083202, “The isolation of sclerotinin A as an anti-malarial compound by utilization of a global secondary metabolism regulator, laeA gene” (Bioorg Med Chem Lett, 2024).

Series [1] is described as follows: Cytotoxicity against human HepG2 cells. Format: toxicity, cell-based.
Series [2] in a line: Selectivity index, ratio of IC50 for human A549 cells to IC50 for chloroquine-sensitive Plasmodium falciparum FCR3. The note with it: read-out: Ratio IC50. Type of series: toxicity, cell-based.
Series [3] is described as follows: Selectivity index, ratio of IC50 for human HepG2 cells to IC50 for chloroquine-resistant Plasmodium falciparum K1. The following applies: read-out: Ratio IC50. Format: toxicity, cell-based.
Series [4] relates to Plasmodium falciparum. The experiment in a line: Antimalarial activity against chloroquine-resistant Plasmodium falciparum K1. Type of series: functional, organism-based.
The test system of another series is Saccharomyces cerevisiae. The experiment in a line: Antifungal activity against multidrug sensitive Saccharomyces cerevisiae 12gene mutant 0HSR-iERG6 at 10 ug. Type of series: functional, organism-based. The note with it: dose 10.0 µg.
The nature of series [5]: Selectivity index, ratio of IC50 for human HeLa cells to IC50 for chloroquine-sensitive Plasmodium falciparum FCR3. Type of series: toxicity, cell-based. The following applies: read-out: Ratio IC50.
Series [6] in a line: Cytotoxicity against human MRC5 cells. Type of series: toxicity, cell-based.
Series [7] can be described thus: Selectivity index, ratio of IC50 for human MRC5 cells to IC50 for chloroquine-resistant Plasmodium falciparum K1. Format: toxicity, cell-based. The note with it: read-out: Ratio IC50.
Series [8] is described as follows: Cytotoxicity against human A549 cells. Type of series: toxicity, cell-based.
The nature of series [9]: Selectivity index, ratio of IC50 for human HeLa cells to IC50 for chloroquine-resistant Plasmodium falciparum K1. The following applies: read-out: Ratio IC50. Type of series: toxicity, cell-based.
A short description of series [10]: Cytotoxicity against human HeLa cells. Type of series: toxicity, cell-based.
The subject of series [11] is Plasmodium falciparum. Nature of the series: Antimalarial activity against chloroquine-sensitive Plasmodium falciparum FCR3. Format: functional, organism-based.
A short description of series [12]: Selectivity index, ratio of IC50 for human MRC5 cells to IC50 for chloroquine-sensitive Plasmodium falciparum FCR3. Format: toxicity, cell-based. The note with it: read-out: Ratio IC50.
Series [13] is described as follows: Selectivity index, ratio of IC50 for human HepG2 cells to IC50 for chloroquine-sensitive Plasmodium falciparum FCR3. Format: toxicity, cell-based. The following applies: read-out: Ratio IC50.
Series [14] can be described thus: Selectivity index, ratio of IC50 for human A549 cells to IC50 for chloroquine-resistant Plasmodium falciparum K1. Type of series: toxicity, cell-based. The note with it: read-out: Ratio IC50.

≈ marks a conversion by molar mass, not a printed value. Calls of active or inactive are those of the source. No cut-off for these calls is given here.

One may read the IC50 as the concentration that gives 50% inhibition. Lower therefore signals greater potency in that assay. For the molecule `Cc1c(O)c(C)c2c(c1O)C(=O)OC(C)(O)[C@H]2C` (stereo not given in full), the IC50 in series [1] worked out at 3.91 µg/mL (≈ 15.5 µM); with Plasmodium falciparum [4], 0.87 µg/mL (≈ 3.45 µM); in [6] it was 1.2 µg/mL (≈ 4.76 µM); in [8], 15.9 µg/mL (≈ 63 µM); in [10], 9.88 µg/mL (≈ 39.2 µM); with Plasmodium falciparum [11] it was 0.62 µg/mL (≈ 2.46 µM). The selectivity ratio in series [2] is 25.6; in series [3], 4.49; in series [5] it was 15.9; in series [7], 1.4; in series [9] it was 11.4; in series [12], 2. Moreover, the selectivity ratio turned out to be 6.31 in [13] and 18.3 in [14]. Also, in the series with Saccharomyces cerevisiae, the outcome was inactive.
